Results reported in patent US20240415819A1, “MACROCYCLIC COMPOUNDS AS PROTEASOME SUBUNIT BETA TYPE-5 INHIBITORS” (Lead Discovery Center GmbH, priority 2021, published 2024).

What was measured:
[1] = target: T1, β5 subunit of the human immunoproteasome (IPS) (Homo sapiens, UniProt P28062); assay: β5 inhibition assay, human immunoproteasome (Suc-LLVY-AMC); assay type: biochemical; conditions: IC50 class, Suc-LLVY-AMC substrate
T1 construct: purchased Boston Biochem E-370
Method in brief: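 Human immunoproteasome (1 nM final) was preincubated 10 min at RT with compound in 100 mM HEPES pH 7.5, 50 mM NaCl, 0.02% SDS, 1 mM DTT. Suc-LLVY-AMC (22.6 μM final) was then added for 4 h at RT in the dark. After stopping with 1 μM bortezomib, AMC fluorescence was read (ex 355/em 460 nm).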

[2] = target: T2, β5 subunit of the human constitutive proteasome (CPS) (Homo sapiens, UniProt P28074); assay: β5 inhibition assay, human constitutive proteasome (Suc-LLVY-AMC); assay type: biochemical; conditions: IC50 class, Suc-LLVY-AMC substrate
T2 construct: purchased Boston Biochem E-360
Method: The enzymatic activity of the β5 subunit of the human constitutive proteasome (CPS) is analyzed. In another assay, which differs from the assay of the human constitutive proteasome only in using the human immunoproteasome (IPS) the enzymatic activity of the β5 subunit of the human immunoproteasome (IPS) is analyzed. […] Inhibition is indicated as IC50 [nM] (“-”=not measured).

[3] = system: MM1 S (B lymphoblast cell line); assay: 48 hr CTG viability assay, MM1S; assay type: cell-based; conditions: Homo sapiens, 48 hr CTG, read-out: MM1S IC50
Method in brief: (§1)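 Growth inhibition by compound over 48 h; IC50 (nM) derived from duplicate CellTiter-Glo luminescence readings across 0.0015–10 uM.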

[4] = system: A549 (human lung carcinoma cell line); assay: Glo assay of A549 cells (Table 3; ProteasomeGlo plating scheme); assay type: cell-based; conditions: Homo sapiens; A549 cells; read-out: PGLo A549
Method in brief: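 Cells plated in 384 wells; compound, DMSO, staurosporine transferred by ECHO; 105 min, 37° C., 5% CO2; Proteasome-Glo (Suc-LLVY-Glo) reagent added; dark 10-15 min; luminescence; IC50 nM.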

[5] = system: RPMI 8226 (B lymphocyte cell line, multiple myeloma); assay: 48 hr CTG viability assay, RPMI 8226; assay type: cell-based; conditions: Homo sapiens, RPMI-8226; 48 hr CTG; read-out: RPMI-8226 IC50
Method in brief: as §1

[6] = system: Hs 746T (human gastric carcinoma cell line); assay: 48 hr CTG viability assay, Hs 746T; assay type: cell-based; conditions: Hs746T, 48 hr CTG, read-out: Hs 746T IC50
Method in brief: as §1

Measured: IC50

Cc1ccc2cc1CNC(=O)[C@H](CCc1ccccc1)NC(=O)[C@@H](NC(=O)CCN1CCC3(CCCC3)C1)CC(=O)N1CCCC(CCO2)C1 (stereo partly drawn) [Compound 652, N-((9S,12S)-5^4-methyl-8,11,14-trioxo-9-phenethyl-4-oxa-7,10-diaza-1(3,1)-piperidina-5(1,3)-benzenacyclotetradecaphane-12-yl)-3-(2-azaspiro[4.4]nonan-2-yl)propanamide]
< 100 nM: all assays above

Cc1ccc2cc1CNC(=O)[C@H](CCc1ccccc1)NC(=O)[C@@H](NC(=O)Cc1ccccc1)CCNC(=O)N1CCCC(CCO2)C1 (stereo partly drawn) [Compound 653, N-((9S,12S)-5^4-methyl-8,11,16-trioxo-9-phenethyl-4-oxa-7,10,15-triaza-1(3,1)-piperidina-5(1,3)-benzenacyclohexadecaphane-12-yl)-2-phenylacetamide]
< 100 nM: all assays above

Cc1ccc2cc1CNC(=O)[C@H](CCc1ccncc1)NC(=O)[C@@H](NC(=O)Cc1ccc(N)cc1C)CC(=O)N1CCCC(CCO2)C1 (stereo partly drawn) [Compound 654, 2-(4-amino-2-methylphenyl)-N-((9S,12S)-5^4-methyl-8,11,14-trioxo-9-(2-(pyridin-4-yl)ethyl)-4-oxa-7,10-diaza-1(3,1)-piperidina-5(1,3)-benzenacyclotetradecaphane-12-yl)acetamide]
< 100 nM: all assays above

Cc1ccc2cc1CNC(=O)[C@H](CCc1ccccc1)NC(=O)[C@@H](NC(=O)C13CC(O)(C1)C3)CC(=O)N1CCCC(CCO2)C1 (stereo partly drawn) [Compound 655, 3-hydroxy-N-((9S,12S)-5^4-methyl-8,11,14-trioxo-9-phenethyl-4-oxa-7,10-diaza-1(3,1)-piperidina-5(1,3)-benzenacyclotetradecaphane-12-yl)bicyclo[1.1.1]pentane-1-carboxamide]
< 100 nM: all assays above

Cc1ccc2cc1CNC(=O)[C@H](CCc1ccccc1)NC(=O)[C@@H](NC(=O)CCNC(=O)c1ccc(C3CCCCC3)cc1)CC(=O)N1CCCC(CCO2)C1 (stereo partly drawn) [Compound 656, 4-cyclohexyl-N-(3-(((9S,12S)-5^4-methyl-8,11,14-trioxo-9-phenethyl-4-oxa-7,10-diaza-1(3,1)-piperidina-5(1,3)-benzenacyclotetradecaphane-12-yl)amino)-3-oxopropyl)benzamide]
< 100 nM: all assays above

Cc1ccc2cc1CNC(=O)[C@H](CCc1ccccc1)NC(=O)[C@@H](NC(=O)CCNC1CC3(CCC3)C1)CC(=O)N1CCCC(CCO2)C1 (stereo partly drawn) [Compound 657, N-((9S,12S)-5^4-methyl-8,11,14-trioxo-9-phenethyl-4-oxa-7,10-diaza-1(3,1)-piperidina-5(1,3)-benzenacyclotetradecaphane-12-yl)-3-(spiro[3.3]heptan-2-ylamino)propanamide]
< 100 nM: all assays above

Cc1ccc2cc1CNC(=O)[C@H](CCc1ccccc1)NC(=O)[C@@H](NC(=O)CCN1CC3(CCOCC3)C1)CC(=O)N1CCCC(CCO2)C1 (stereo partly drawn) [Compound 658, N-((9S,12S)-5^4-methyl-8,11,14-trioxo-9-phenethyl-4-oxa-7,10-diaza-1(3,1)-piperidina-5(1,3)-benzenacyclotetradecaphane-12-yl)-3-(7-oxa-2-azaspiro[3.5]nonan-2-yl)propanamide]
< 100 nM: all assays above

Cc1ccc2cc1CNC(=O)[C@H](CCc1ccccc1)NC(=O)[C@@H](NC(=O)CCN1CC3(CCC3)C1)CC(=O)N1CCCC(CCO2)C1 (stereo partly drawn) [Compound 659, N-((9S,12S)-5^4-methyl-8,11,14-trioxo-9-phenethyl-4-oxa-7,10-diaza-1(3,1)-piperidina-5(1,3)-benzenacyclotetradecaphane-12-yl)-3-(2-azaspiro[3.3]heptan-2-yl)propanamide]
< 100 nM: all assays above

Cc1ccc2cc1CNC(=O)[C@H](CCc1ccccc1)NC(=O)[C@@H](NC(=O)CCN1CC3(COC3)C1)CC(=O)N1CCCC(CCO2)C1 (stereo partly drawn) [Compound 660, N-((9S,12S)-5^4-methyl-8,11,14-trioxo-9-phenethyl-4-oxa-7,10-diaza-1(3,1)-piperidina-5(1,3)-benzenacyclotetradecaphane-12-yl)-3-(2-oxa-6-azaspiro[3.3]heptan-6-yl)propanamide]
< 100 nM: all assays above

O=C(Cc1ccccc1)N[C@H]1CC(=O)N2CCCC(CCOc3ccc(F)c(c3)CNC(=O)[C@H](CCc3ccccc3)NC1=O)C2 (stereo partly drawn) [Compound 661, N-((9S,12S)-5^4-fluoro-8,11,14-trioxo-9-phenethyl-4-oxa-7,10-diaza-1(3,1)-piperidina-5(1,3)-benzenacyclotetradecaphane-12-yl)-2-phenylacetamide]
< 100 nM: all assays above

Cc1ccc2cc1CNC(=O)[C@H](CCc1ccccc1)NC(=O)[C@@H](NC(=O)C13CC(N)(C1)C3)CC(=O)N1CCCC(CCO2)C1 (stereo partly drawn) [Compound 662, 3-amino-N-((9S,12S)-5^4-methyl-8,11,14-trioxo-9-phenethyl-4-oxa-7,10-diaza-1(3,1)-piperidina-5(1,3)-benzenacyclotetradecaphane-12-yl)bicyclo[1.1.1]pentane-1-carboxamide]
< 100 nM: all assays above

Cc1ccc2cc1CNC(=O)[C@H](CCc1ccccc1)NC(=O)[C@@H](NC(=O)CN1CCC1)CC(=O)N1CCCC(CCO2)C1 (stereo partly drawn) [Compound 663, 2-(azetidin-1-yl)-N-((9S,12S)-5^4-methyl-8,11,14-trioxo-9-phenethyl-4-oxa-7,10-diaza-1(3,1)-piperidina-5(1,3)-benzenacyclotetradecaphane-12-yl)acetamide]
< 100 nM: all assays above

Cc1ccc2cc1CNC(=O)[C@H](CCc1ccccc1)NC(=O)[C@@H](NC(=O)CCNCc1cccc(N3CCOCC3)c1)CC(=O)N1CCCC(CCO2)C1 (stereo partly drawn) [Compound 665, N-((9S,12S)-5^4-methyl-8,11,14-trioxo-9-phenethyl-4-oxa-7,10-diaza-1(3,1)-piperidina-5(1,3)-benzenacyclotetradecaphane-12-yl)-3-((3-morpholinobenzyl)amino)propanamide]
< 100 nM: all assays above
